Results reported in patent US20240246932A1 (Merck Sharp & Dohme LLC, priority 2021, published 2024).

Biological target: human NaV 1.8 channels stably expressed in HEK 293 cells (Homo sapiens (Human), UniProt Q9Y5Y9)
Test: Nav1.8 Qube automated patch-clamp assay
Type: cell-based
Conditions: human NaV1.8 in HEK 293 cells, whole-cell voltage clamp, room temperature; read-out: IC50 values (nM) for Examples in the Nav1.8 Qube Assay
How it was run: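 Whole-cell voltage clamp at room temperature on HEK293 cells; from −90 mV, a 10 s 1 Hz train of 20 ms pulses to 10 mV (repolarising to −67 mV) was applied. Peak currents at pulses 1 and 10 gave resting- and inactivated-state inhibition; IC50 fitted by Hill equation. Internal CsF/CsCl buffer.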

Sequence of human NaV 1.8 channels stably expressed in HEK 293 cells (Q9Y5Y9 whole entry): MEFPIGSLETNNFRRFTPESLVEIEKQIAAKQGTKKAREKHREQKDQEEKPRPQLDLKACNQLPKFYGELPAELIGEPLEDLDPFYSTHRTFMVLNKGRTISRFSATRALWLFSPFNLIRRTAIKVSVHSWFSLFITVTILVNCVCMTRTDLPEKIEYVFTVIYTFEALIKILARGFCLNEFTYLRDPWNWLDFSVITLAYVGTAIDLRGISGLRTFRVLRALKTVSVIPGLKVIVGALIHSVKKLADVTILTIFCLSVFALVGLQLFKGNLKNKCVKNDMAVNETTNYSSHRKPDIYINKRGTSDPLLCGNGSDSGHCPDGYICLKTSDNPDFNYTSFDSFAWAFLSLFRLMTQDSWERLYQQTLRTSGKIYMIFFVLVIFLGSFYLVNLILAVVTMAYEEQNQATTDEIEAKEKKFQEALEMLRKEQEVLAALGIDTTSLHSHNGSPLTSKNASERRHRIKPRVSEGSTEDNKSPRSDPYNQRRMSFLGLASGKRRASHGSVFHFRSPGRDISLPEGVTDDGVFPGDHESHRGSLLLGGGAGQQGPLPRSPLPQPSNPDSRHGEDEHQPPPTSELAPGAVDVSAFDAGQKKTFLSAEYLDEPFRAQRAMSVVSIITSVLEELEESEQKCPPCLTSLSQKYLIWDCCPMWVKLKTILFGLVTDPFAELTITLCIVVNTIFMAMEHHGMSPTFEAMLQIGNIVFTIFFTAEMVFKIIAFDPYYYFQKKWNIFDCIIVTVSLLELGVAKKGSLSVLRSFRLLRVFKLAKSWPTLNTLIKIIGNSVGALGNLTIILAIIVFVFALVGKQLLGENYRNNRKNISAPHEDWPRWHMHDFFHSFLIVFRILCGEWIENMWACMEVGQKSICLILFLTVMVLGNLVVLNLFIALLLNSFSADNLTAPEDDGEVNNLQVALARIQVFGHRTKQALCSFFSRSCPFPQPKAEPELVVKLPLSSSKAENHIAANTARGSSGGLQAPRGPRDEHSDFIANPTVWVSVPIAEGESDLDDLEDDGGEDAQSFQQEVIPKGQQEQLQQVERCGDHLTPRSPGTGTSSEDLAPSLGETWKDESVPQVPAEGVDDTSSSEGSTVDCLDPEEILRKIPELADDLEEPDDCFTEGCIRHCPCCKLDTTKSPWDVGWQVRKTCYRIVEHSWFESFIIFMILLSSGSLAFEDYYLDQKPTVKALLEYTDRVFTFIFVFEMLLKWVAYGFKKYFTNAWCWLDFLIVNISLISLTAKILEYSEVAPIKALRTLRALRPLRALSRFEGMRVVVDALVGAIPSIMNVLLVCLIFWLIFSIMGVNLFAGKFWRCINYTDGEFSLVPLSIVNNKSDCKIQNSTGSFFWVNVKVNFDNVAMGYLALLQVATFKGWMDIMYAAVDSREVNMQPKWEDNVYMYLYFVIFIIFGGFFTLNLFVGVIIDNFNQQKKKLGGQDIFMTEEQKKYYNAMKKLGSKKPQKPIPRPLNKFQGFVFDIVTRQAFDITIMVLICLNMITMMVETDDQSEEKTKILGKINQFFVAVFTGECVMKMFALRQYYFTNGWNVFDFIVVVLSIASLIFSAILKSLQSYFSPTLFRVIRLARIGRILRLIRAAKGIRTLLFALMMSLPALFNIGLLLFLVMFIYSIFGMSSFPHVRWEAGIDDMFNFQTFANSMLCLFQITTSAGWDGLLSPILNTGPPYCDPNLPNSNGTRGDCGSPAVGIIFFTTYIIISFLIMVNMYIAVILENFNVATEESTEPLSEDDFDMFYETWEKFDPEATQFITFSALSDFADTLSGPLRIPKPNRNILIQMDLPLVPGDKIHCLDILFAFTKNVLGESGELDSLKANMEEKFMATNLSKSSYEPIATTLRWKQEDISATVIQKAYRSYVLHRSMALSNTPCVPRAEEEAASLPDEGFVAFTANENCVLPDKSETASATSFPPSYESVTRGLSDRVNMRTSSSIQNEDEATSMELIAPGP

Row | IC50 [nM] | Structure (SMILES)
1 | 13.5 | C[C@@H]1C(=O)NCCN1C(=O)NC(c1ccc(OC(F)(F)F)c(Cl)c1)c1cnn(C(F)(F)F)c1 (single isomer, unassigned) [Example 63B, (2R)-N-((S or R)-(3-chloro-4-(trifluoro-methoxy)phenyl)(1-(trifluoromethyl)-1H-pyrazol-4-yl)methyl)-2-methyl-3-oxopiperazine-1-carboxamide]
2 | 4.96 | C[C@@H]1C(=O)NCCN1C(=O)NC(c1ccc(OC(F)(F)F)c(Cl)c1)c1coc(C(F)(F)F)n1 (single isomer, unassigned) [Example 64A, (2R)-N-((R or S)-(3-chloro-4-(trifluoro-methoxy)phenyl)(2-(trifluoromethyl)oxazol-4-yl)methyl)-2-methyl-3-oxopiperazine-1-carboxamide]
3 | 3.5 | C[C@@H]1C(=O)NCCN1C(=O)NC(c1ccc(OC(F)(F)F)c(Cl)c1)c1coc(C(F)(F)F)n1 (single isomer, unassigned) [Example 64B, (2R)-N-((S or R)-(3-chloro-4-(trifluoro-methoxy)phenyl)(2-(trifluoromethyl)oxazol-4-yl)methyl)-2-methyl-3-oxopiperazine-1-carboxamide]
4 | 8.05 | C[C@@H]1C(=O)NCCN1C(=O)NC(c1cnn(-c2ccc(F)cc2)c1)c1ccc(F)c(Cl)c1F (single isomer, unassigned) [Example 65A, (2R)-N-((R or S)-(3-chloro-2,4-difluoro-phenyl)(1-(4-fluoro-phenyl)-1H-pyrazol-4-yl)methyl)-2-methyl-3-oxopiperazine-1-carboxamide]
5 | 89.3 | C[C@@H]1C(=O)NCCN1C(=O)NC(c1cnn(-c2ccc(F)cc2)c1)c1ccc(F)c(Cl)c1F (single isomer, unassigned) [Example 65B, (2R)-N-((S or R)-(3-chloro-2,4-difluoro-phenyl)(1-(4-fluoro-phenyl)-1H-pyrazol-4-yl)methyl)-2-methyl-3-oxopiperazine-1-carboxamide]
6 | 125 | C[C@@H]1C(=O)NCCN1C(=O)NC(c1ccc(F)c(Cl)c1)c1ccn(C(F)F)n1 (single isomer, unassigned) [Example 66A]
7 | 82.3 | C[C@@H]1C(=O)NCCN1C(=O)NC(c1ccc(F)c(Cl)c1)c1ccn(C(F)F)n1 (single isomer, unassigned) [Example 66B]
8 | 890 | C[C@@H]1C(=O)NCCN1C(=O)NC(c1ccc(F)c(Cl)c1)c1cnn(CC(F)(F)F)c1 (single isomer, unassigned) [Example 67A]
9 | 42 | C[C@@H]1C(=O)NCCN1C(=O)NC(c1ccc(F)c(Cl)c1)c1cnn(CC(F)(F)F)c1 (single isomer, unassigned) [Example 67B, (2R)-N-((S or R)-(3-chloro-4-fluorophenyl)(1-(2,2,2-trifluoroethyl)-1H-pyrazol-4-yl)methyl)-2-methyl-3-oxopiperazine-1-carboxamide]
10 | 34.9 | C[C@@H]1C(=O)NCCN1C(=O)NC(c1ccc(Cl)cc1)c1ccnc(C(F)(F)F)n1 (single isomer, unassigned) [Example 68A]
11 | 761 | C[C@@H]1C(=O)NCCN1C(=O)NC(c1ccc(Cl)cc1)c1ccnc(C(F)(F)F)n1 (single isomer, unassigned) [Example 68B]
12 | 136 | C[C@@H]1C(=O)NCCN1C(=O)NC(c1cnc(C(F)(F)F)nc1)c1ccc(F)c(Cl)c1 (single isomer, unassigned) [Example 69A, (2R)-N-((R or S)-(3-chloro-4-fluorophenyl)(2-(trifluoromethyl)pyrimidin-5-yl)methyl)-2-methyl-3-oxopiperazine-1-carboxamide]
13 | 23 | C[C@@H]1C(=O)NCCN1C(=O)NC(c1cnc(C(F)(F)F)nc1)c1ccc(F)c(Cl)c1 (single isomer, unassigned) [Example 69B, (2R)-N-((S or R)-(3-chloro-4-fluorophenyl)(2-(trifluoromethyl)pyrimidin-5-yl)methyl)-2-methyl-3-oxopiperazine-1-carboxamide]
14 | 51.4 | C[C@@H]1C(=O)NCCN1C(=O)NC(c1ccc(F)c(Cl)c1)c1ccc(F)c(OCC(F)(F)F)n1 (single isomer, unassigned) [Example 70A]
15 | 6.87 | C[C@@H]1C(=O)NCCN1C(=O)NC(c1ccc(F)c(Cl)c1)c1ccc(F)c(OCC(F)(F)F)n1 (single isomer, unassigned) [Example 70B]
16 | 82.6 | C[C@@H]1C(=O)NCCN1C(=O)NC(c1ccnc(OCC(F)(F)F)c1)c1ccc(F)c(Cl)c1 (single isomer, unassigned) [Example 71A, (2R)-N-((R or S)-(3-chloro-4-fluorophenyl)(2-(2,2,2-trifluoro-ethoxy)pyridin-4-yl)methyl)-2-methyl-3-oxopiperazine-1-carboxamide]
17 | 2.76 | C[C@@H]1C(=O)NCCN1C(=O)NC(c1ccnc(OCC(F)(F)F)c1)c1ccc(F)c(Cl)c1 (single isomer, unassigned) [Example 71B, (2R)-N-((S or R)-(3-chloro-4-fluorophenyl)(2-(2,2,2-trifluoro-ethoxy)pyridin-4-yl)methyl)-2-methyl-3-oxopiperazine-1-carboxamide]

Row | IC50 [nM] | Structure (SMILES)
18 | 195 | C[C@@H]1C(=O)NCCN1C(=O)NC(c1ccc(F)c(Cl)c1)c1cccc(OC(F)F)n1 (single isomer, unassigned) [Example 72A]
19 | 25.3 | C[C@@H]1C(=O)NCCN1C(=O)NC(c1ccc(F)c(Cl)c1)c1cccc(OC(F)F)n1 (single isomer, unassigned) [Example 72B]
20 | 7.01 | C[C@@H]1C(=O)NCCN1C(=O)NC(c1ccc(OC(F)F)nc1)c1ccc(F)c(Cl)c1 (single isomer, unassigned) [Example 73A, (2R)-N-((R or S)-(3-chloro-4-fluorophenyl)(6-(difluoromethoxy)pyridin-3-yl)methyl)-2-methyl-3-oxopiperazine-1-carboxamide]
21 | 20.6 | C[C@@H]1C(=O)NCCN1C(=O)NC(c1ccc(OC(F)F)nc1)c1ccc(F)c(Cl)c1 (single isomer, unassigned) [Example 73B, (2R)-N-((R or S)-(3-chloro-4-fluoro-phenyl)(6-(difluoro-methoxy)pyridin-3-yl)methyl)-2-methyl-3-oxopiperazine-1-carboxamide]
22 | 71.1 | C[C@@H]1C(=O)NCCN1C(=O)NC(c1cnc(OC(F)F)nc1)c1ccc(F)c(Cl)c1F (single isomer, unassigned) [Example 74A, (2R)-N-((R or S)-(3-chloro-2,4-difluoro-phenyl)(2-(difluoro-methoxy)pyrimidin-5-yl)methyl)-2-methyl-3-oxopiperazine-1-carboxamide]
23 | 1320 | C[C@@H]1C(=O)NCCN1C(=O)NC(c1cnc(OC(F)F)nc1)c1ccc(F)c(Cl)c1F (single isomer, unassigned) [Example 74B, (2R)-N-((S or R)-(3-chloro-2,4-difluorophenyl)(2-(difluoromethoxy)pyrimidin-5-yl)methyl)-2-methyl-3-oxopiperazine-1-carboxamide]
24 | 89.5 | C[C@@H]1C(=O)NCCN1C(=O)NC(c1ccc(C(C)(F)F)nc1)c1ccc(F)c(Cl)c1F (single isomer, unassigned) [Example 75A]
25 | 2.95 | C[C@@H]1C(=O)NCCN1C(=O)NC(c1ccc(C(C)(F)F)nc1)c1ccc(F)c(Cl)c1F (single isomer, unassigned) [Example 75B]
26 | 5.18 | C[C@@H]1C(=O)NCCN1C(=O)NC(c1ccc(C#N)cc1)c1ccc(Cl)c(C(F)(F)F)n1 (single isomer, unassigned) [Example 76A]
27 | 167 | C[C@@H]1C(=O)NCCN1C(=O)NC(c1ccc(C#N)cc1)c1ccc(Cl)c(C(F)(F)F)n1 (single isomer, unassigned) [Example 76B]
28 | 4.59 | C[C@@H]1C(=O)NCCN1C(=O)NC(c1ccc(Cl)c(C(F)(F)F)n1)c1ccc(F)c(Cl)c1F (single isomer, unassigned) [Example 77A, (2R)-N-((R or S)-(3-chloro-2,4-difluorophenyl)(5-chloro-6-(trifluoromethyl)pyridin-2-yl)methyl)-2-methyl-3-oxopiperazine-1-carboxamide]
29 | 1.06 | C[C@@H]1C(=O)NCCN1C(=O)NC(c1ccc(Cl)c(C(F)(F)F)n1)c1ccc(F)c(Cl)c1F (single isomer, unassigned) [Example 77B, (2R)-N-((S or R)-(3-chloro-2,4-difluorophenyl)(5-chloro-6-(trifluoromethyl)pyridin-2-yl)methyl)-2-methyl-3-oxopiperazine-1-carboxamide]
30 | 15.3 | O=C1CN(C(=O)NC(c2ccc(Cl)c(C(F)(F)F)n2)c2ccc(F)c(Cl)c2F)CCN1 (single isomer, unassigned) [Example 78A, N-((R or S)-(3-chloro-2,4-difluorophenyl)(5-chloro-6-(trifluoro-methyl)pyridin-2-yl)methyl)-3-oxopiperazine-1-carboxamide]
31 | 3.54 | O=C1CN(C(=O)NC(c2ccc(Cl)c(C(F)(F)F)n2)c2ccc(F)c(Cl)c2F)CCN1 (single isomer, unassigned) [Example 78B, N-((S or R)-(3-chloro-2,4-difluorophenyl)(5-chloro-6-(trifluoro-methyl)pyridin-2-yl)methyl)-3-oxopiperazine-1-carboxamide]
32 | 0.58 | C[C@@H]1C(=O)NCCN1C(=O)NC(c1ccc(F)c(Cl)c1)c1ccc(Cl)c(C(F)(F)F)n1 (single isomer, unassigned) [Example 79, (2R)-N-((R or S)-(3-chloro-4-fluoro-phenyl)(5-chloro-6-(trifluoromethyl)pyridin-2-yl)methyl)-2-methyl-3-oxopiperazine-1-carboxamide]
33 | 1.9 | O=C1CN(C(=O)NC(c2ccc(F)c(Cl)c2)c2ccc(Cl)c(C(F)(F)F)n2)CCN1 (single isomer, unassigned) [Example 80, N-((R or S)-(3-chloro-4-fluorophenyl)(5-chloro-6-(trifluoromethyl)pyridin-2-yl)methyl)-3-oxopiperazine-1-carboxamide]
